Laboratory results reported in a melting point compilation (Tetko et al.; mined from patent text by program, amines drawn as free bases though some values may be those of a salt).

| SMILES | melting point |
| --- | --- |
| NC(=O)c1cn2c(ccc3ccccc32)n1 | 270 to 271 °C |
| COC1(c2cc(F)cc(Sc3ccc4c(c3)O[C@H](C)C(=O)N4C)c2)CCOCC1 | 107 to 109 °C |
| Cc1c2[nH]c(C(=O)O)cc(=O)c2cc2c(=O)cc(C(=O)O)[nH]c12 | > 310 °C |
| CC(C)C[C@H](N)C(=O)NCCCCCNC(=O)OCc1ccccc1 | 145 to 146 °C |
| O=C1Nc2ccccc2C1C(=O)c1cccnc1 (stereo not given) | 169 to 170 °C |
| Cc1sc(S(C)=O)nc1-c1ccccc1 (stereo not given) | 96 to 97 °C |
| CN1Cc2c(-c3noc(CCl)n3)ncn2-c2cccc(Br)c2C1=O | 242 to 244 °C |
| O=C1OC(=O)c2c(Cl)cc(Cl)cc21 | 90 to 94 °C |
| CCC(=O)CC(=O)c1ccc(C2CCC(CC)CC2)cc1 (stereo not given) | 78 °C |
| O=C1CC(=O)CC(c2ccc(Cl)c(Cl)c2)C1 | 198 to 200 °C |
| CCC1(CCSC(C)=O)C(=O)N2CCCC(C(=O)OC(C)(C)C)N2C1=O (stereo not given) | 82 to 84 °C |
| Nc1nc(N)nc(C2CCN(C(=O)c3ccccc3)CC2)n1 | 246 to 248 °C |
| C=CC(=O)OCCCCCCCCOc1ccc(-c2ccc(OCCCCCCCCOC(=O)C=C)c(F)c2F)c(F)c1F | 60.5 to 61.4 °C |
| CC1CCC(=O)N1c1ccnc(NC(=O)NCc2ccccn2)c1 (stereo not given) | 155 to 160 °C |
| Cn1nc(C(F)(F)F)c(CS(=O)(=O)C2=NOC(C)(CCl)C2)c1Cl (stereo not given) | 114 to 116 °C |
| CC(=O)C(C)Nc1c(C)cc(C)c2nsnc12 (stereo not given) | 209 to 211 °C |
| O=C(C=NO)Nc1ccccc1F | 120 °C |
| Cn1nc(Cl)c(C2=NOCCO2)c1S(N)(=O)=O | 158 °C |
| O=[N+]([O-])c1ccc2c(c1)C1OC1CCO2 (stereo not given) | 121 to 123 °C |
| Cn1nc(C(F)F)[nH]c1=O | 141 °C |

The next lines start with the values.

| melting point | SMILES |
| --- | --- |
| 178 to 180 °C | CCOC(=O)c1cn(C2CC2)c2cc(-c3cc(C4OCC(C)(C)CO4)cc(OC)c3OC)c(F)cc2c1=O |
| 83 to 85 °C | Clc1ccc(C(Cl)c2cc3cc(Br)ccc3o2)cc1 (stereo not given) |
| 210 to 211 °C | COc1ccc(NC(=O)c2cc([N+](=O)[O-])ccc2NC(=O)c2ccc(C(C)(C)C)cc2)cc1 |
| 165 to 168 °C | COc1ccc2cc(C(C)C(=O)N3CSCC3C(=O)O)ccc2c1 (stereo not given) |
| 160 to 163 °C | CC1(O)CC(=O)OC(CCc2ccc(OCc3ccc(F)cc3)cc2)C1Br (stereo not given) |
| 217 to 218 °C | Cc1nc2c(cc1C#CCO)c(=O)c(C(=O)NCc1ccc(Cl)cc1)cn2C |
| 60 to 61 °C | COCCCCOc1ccc(OCc2ccccc2)cc1 |
| 260 °C | O=C(Nc1nc2ccccc2s1)Nc1cccc2c1C1CCCCN1C2=O (stereo not given) |
| 96.5 to 97.5 °C | O=S(=O)(c1ccc(Oc2cccc(C(F)(F)F)c2)cc1)c1ccc(Oc2cccc(C(F)(F)F)c2)cc1 |
| 80 to 85 °C | Cc1ccc2c3c(ccc2n1)OC[C@H](CN1CCCN(c2ccc4cc(C#N)ccc4n2)CC1)O3 |
| 138 to 141 °C | COC(=O)C(=O)c1oc2cccc(OCc3ccc(F)cc3)c2c1O |
| 144 to 146 °C | Cc1cccc(C)c1NC(=O)c1ccc(S(C)=O)cc1 (stereo not given) |
| 108 to 109 °C | O=[N+]([O-])c1cnc2ccc(Sc3ccccc3)cn12 |
| 244 to 246 °C | NC(=O)c1c(F)ccc(OCc2nc3cc(Br)ccc3s2)c1F |
| 208 to 209 °C | N=C(Nc1ccc(F)c(NC(=O)/C=C/c2ccccc2C(F)(F)F)c1)c1cccs1 |
| 166 to 167 °C | COc1ccc(Cn2cnc3c(-c4ccco4)nc(C(C)=O)nc32)cc1 |
| 114 °C | CCCc1nc(SC(F)F)c(C(=O)O)n1Cc1ccc(-c2ccccc2S(=O)(=O)NC(=O)NCCC2=CCCCC2)cc1 |
| 74 to 75 °C | CCCCOc1nc2cccc(C(=O)OC)c2n1Cc1ccc(-c2ccccc2C#N)cc1 |
| 180 to 183 °C | CC(C)(C)C(NC(=O)c1ccc(I)cc1)NC(=NC#N)Nc1cccnc1 (stereo not given) |
| 124 to 125 °C | COc1cc(CNc2cc(Cl)c(N=CN(C)C)c(Cl)c2)cc(OC)c1 |
